According to US4684739A, “Alkylenedioxybenzene derivatives and acid addition salts thereof” (Mitsubishi Chemical Industries Limited, priority 1980, dated 1987):
Counter-ions that a name gives are not always drawn.

Tests used:
[1] = tested on: spontaneous hypertensive rats (SHR); assay: Hypotensive effect in spontaneous hypertensive rats after oral administration; assay type: in vivo; details: Rattus norvegicus, percent drop relative to blood pressure before medication; for inhibition in vivo at 1 mg/kg: 1 mg/kg p.o.; for inhibition in vivo at 3 mg/kg: 3 mg/kg p.o.; for inhibition in vivo at 10 mg/kg: 10 mg/kg p.o.
Description: The hypotensive activities of the compounds of this invention were tested as follows: The test animals used were spontaneous hypertensive rats (SHR) of 5 to 7 month old weighing 300 to 370 g. The blood pressure and the heart rate were measured bloodily under no anesthesia by means of a cathether which has been inserted through the tail's artery under ether anesthesia, thereby determining the average blood pressure and heart rate before medication. […] The hypotensive effect was expressed as percent drop relative to the blood pressure before medication.

[2] = Acute toxicity (LD50) in mice, Litchfield-Wilcoxon method; details: mouse, in vivo
Description: The values for acute toxicity (LD50 ) were calculated by the Litchfield-Wilcoxon method from the data obtained on mice.

Structure (SMILES)	inhibition in vivo at 1 mg/kg [1] [%]	inhibition in vivo at 3 mg/kg [1] [%]	inhibition in vivo at 10 mg/kg [1] [%]	LD50 ([2]; po) [mg/kg]	LD50 ([2]; ip) [mg/kg]	LD50 ([2]; iv) [mg/kg]
Cl.OC(CNCC1COc2ccccc2O1)COc1ccc2c(c1)OCO2 (stereo not drawn) [Compound 1, 5-[3-{(1,4-benzodioxan-2-ylmethyl)amino}-2-hydroxypropoxy]-1,3-benzodioxole hydrochloride]	9.9	15.4	27.6	515		
OC(CNCC1COc2ccccc2O1)COc1ccc2c(c1)OCCO2 (stereo not drawn) [Compound 2, 6-[3-{(1,4-benzodioxan-2-ylmethyl)amino}-2-hydroxypropoxy]-1,4-benzodioxane]	9	20.2	30.4			
Cl.c1ccc2c(c1)OCC(CNCCCOc1ccc3c(c1)OCO3)O2 (stereo not drawn) [Compound 5, 5-[3-{(1,4-benzodioxan-2-ylmethyl)amino}propoxy]-1,3-benzodioxole hydrochloride]		32.6	47.6		165	
c1ccc2c(c1)OCC(CNCCCCOc1ccc3c(c1)OCO3)O2 (stereo not drawn) [Compound 6]		28.5	32			
c1ccc2c(c1)OCC(CNCCCOc1ccc3c(c1)OCCO3)O2 (stereo not drawn) [Compound 7, 6-[3-{(1,4-benzodioxan-2-ylmethyl)amino}propoxy]-1,4-benzodioxane]		35.2	55.3			
c1ccc2c(c1)OCC(CNCCCOc1ccc3c(c1)OCCCO3)O2 (stereo not drawn) [Compound 9, 1-[3-{(1,4-benzodioxan-2-ylmethyl)amino}propoxy]-3,4-trimethylenedioxybenzene]		30.1	48.4			
c1ccc2c(c1)OCC(CNCCCCOc1cccc3c1OCO3)O2 (stereo not drawn) [Compound 10]		30.6	40			
Cl.O=C(CNCC1COc2ccccc2O1)c1ccc2c(c1)OCO2 (stereo not drawn) [Compound 12, 5-[2-{(1,4-benzodioxan-2-ylmethyl)amino}acetyl]-1,3-benzodioxole hydrochloride]	20.1	28.2	42.3	1350		
c1ccc2c(c1)OCC(CNCCCCc1ccc3c(c1)OCCO3)O2 (stereo not drawn) [Compound 16, 6-[4-{(1,4-benzodioxan-2-ylmethyl)amino}butyl]-1,4-benzodioxane]	12.1	33.7	50			31
c1ccc2c(c1)OCC(CNCCCCc1ccc3c(c1)OCCCO3)O2 (stereo not drawn) [Compound 17, 1-[4-{(1,4-benzodioxan-2-ylmethyl)amino}butyl]-3,4-trimethylenedioxybenzene hydrochloride]	20.1	29.7				
O=C(CCNCC1COc2ccccc2O1)Nc1ccc2c(c1)OCO2 (stereo not drawn) [Compound 18, N-[3-{(1,4-benzodioxan-2-ylmethyl)amino}propionyl]-3,4-methylenedioxyaniline]	11.9	27.5	41			
c1ccc2c(c1)OCC(CNCCCNc1ccc3c(c1)OCO3)O2 (stereo not drawn) [Compound 19, N-[3-{(1,4-benzodioxan-2-ylmethyl)amino}propyl]-3,4-methylenedioxyaniline]	19.6	27.8	44.3			
OC(CNCC1COc2ccccc2O1)c1ccc2c(c1)OCCO2 (stereo not drawn) [Compound 21, 6-[2-{(1,4-benzodioxan-2-ylmethyl)amino}-1-hydroxyethyl]-1,4-benzodioxane]	9.8	19.5	39.1			
c1ccc2c(c1)OCC(CNCCOc1cccc3c1OCO3)O2 (stereo not drawn) [Compound 26, reference compound]		3.5	8.1			
O=C(CCNCC1COc2ccccc2O1)c1ccc2c(c1)OCO2 (stereo not drawn) [Compound 27, reference compound]	7.8	12.8	30.3			
